# According to PubChem BioAssay AID1159562 (GlaxoSmithKline (GSK), 2015):
# The source made the active and inactive calls. The rule behind the calls is not given here.
# Tested on: Trypanosoma brucei growth inhibition, luminescence
# Test: antitrypanosomal activity against T. brucei – luminescence (AID 1159562);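 note: parasites grew with compound for 24 h before the luminescence read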
row,SMILES,IC50
1,N#Cc1cc([N+](=O)[O-])ccc1NC1CCCCCC1,3200 nM
2,CCC(CC)C(=O)Nc1cccc(C(=O)Nc2nnc(C3CCCCC3)s2)c1,630 nM
3,Cn1nc([N+](=O)[O-])nc1N1CCCCC1,> 40000 nM (inactive)
4,CCCCn1c(=O)c2c(N)onc2n(CCCC)c1=O,500 nM
5,COc1ccccc1CNc1cc(C2CC2)nc(-c2nccn2C)n1,2000 nM
6,CC(=O)NC1(c2ccccc2)CCN(CC(=O)Nc2ccccc2-c2ccccc2)CC1,500 nM
7,CCOc1cc(NCCCN2CCN(C)CC2)c2ncccc2c1,20000 nM
8,COc1ccc(CNc2cc(C3CC3)nc(-c3nccn3C)n2)cc1,2500 nM
9,NC(=O)c1ccc(-c2cccc(OCCN3CCN(C4CCCCC4)CC3)c2)cc1,16000 nM
10,COc1ccc2c(Cl)c(C(=O)N3CCC3)sc2c1Cl,> 40000 nM (inactive)
11,Cc1c(CNC(=O)c2ccc(Cn3cc(Cl)c([N+](=O)[O-])n3)cc2)cnn1C,10000 nM
12,O=C1OCc2ccc(Nc3nccc(-c4cnn5ncccc45)n3)cc21,20 nM
13,O=C(NC(c1ccc(Cl)cc1)c1cnccn1)C1CCN(C(=O)Nc2cccc(C(F)(F)F)c2)CC1 (stereo not drawn),6300 nM
14,N#Cc1cccc(CN2CCC(c3nc(-c4ccc(C(F)(F)F)nc4)no3)CC2)c1,> 40000 nM (inactive)
15,COc1cc2c(cc1OC)[C@H]1[C@@H](C)c3ccc(OC)c(OC)c3CN1CC2,> 40000 nM (inactive)
16,CN(C)S(=O)(=O)c1cccc(CSc2nnc(-c3ccc4c(c3)OCO4)o2)c1,> 40000 nM (inactive)
17,CC(=O)Nc1ccc(-c2noc(CC3CCCN(Cc4cccc(F)c4C)C3)n2)cc1 (stereo not drawn),25000 nM
18,O=C(CN1CCN(S(=O)(=O)c2cccc([N+](=O)[O-])c2)CC1)Nc1ccc(Oc2ccccc2)cc1,16000 nM
19,COc1ccc(C2C3CCCCC3(O)CCN2CC(=O)Nc2ccc(Cl)cc2Cl)cc1 (stereo not drawn),25000 nM
20,O=c1[nH]ccc2ccc(-c3ccncc3)cc12,> 40000 nM (inactive)
21,Cc1nc2c(-c3n[nH]c(-c4ccccc4N)n3)cccn2c1C,2500 nM
22,Cc1ccc(S(=O)(=O)Nc2ccc(CN3CCN(C(=O)c4cccc(C#N)c4)CC3)cc2)cc1,320 nM

row,SMILES,IC50
1,O=C(Cn1cnc([N+](=O)[O-])n1)Nc1ccc(Cl)cc1C(=O)c1ccccc1,32000 nM
2,CC(C)(C)c1cc(NC2CC2)nc(-c2ccccn2)n1,2500 nM
3,Cc1ccc(C)c(OC2CCN(C(=O)C(C)n3ccnc3)CC2)c1 (stereo not drawn),> 40000 nM (inactive)
4,Cc1[nH]nc2c1C(c1ccc(OCc3ccccc3F)cc1)SCC(=O)N2 (stereo not drawn),> 40000 nM (inactive)
5,CN1CCC(N(C)c2nccc(N3CCN(C(=O)c4cccc(-c5cccnc5)c4)CC3)n2)CC1,1000 nM
6,CCN(CC)c1nc(N(C)C)nc2c1CN(Cc1ccccc1)CC2,20000 nM
7,CN(C(=O)Nc1ccc2c(c1)CCN(C1CCC1)CC2)c1ccc(C#N)cc1,630 nM
8,CN(C)Cc1ccc(-c2ccc(S(=O)(=O)NCC3CCCO3)c(F)c2)cc1 (stereo not drawn),40000 nM
9,N#Cc1cnc(Nc2cccc(CCN3CCOCC3)c2)nc1Nc1ccccc1C(N)=O,250 nM
10,O=C1CN(Cc2ccco2)C2CS(=O)(=O)CC2N1c1ccc(Cl)cc1 (stereo not drawn),250 nM
11,COc1ccc(-c2cc(C)no2)cc1S(=O)(=O)Nc1ccc(F)c(Cl)c1,25000 nM
12,N#Cc1ccc(C(=O)Nc2cccc(-c3cccc(CN4CCC(O)CC4)c3)c2)cc1,790 nM
13,Cc1ccccc1OCC(=O)N1CCCN(c2cccnn2)CC1,> 40000 nM (inactive)
14,Cc1cc2nc(CN(C)Cc3ncccc3C)[nH]c2cc1C,630 nM
15,COCc1cnc2c(c1SCc1c(F)cccc1Cl)c(=O)n(C)c(=O)n2C,> 40000 nM (inactive)
16,CC1=NN(C(=O)CCn2cnc([N+](=O)[O-])n2)C(O)(C(F)(F)F)C1 (stereo not drawn),> 40000 nM (inactive)
17,COCc1cc(Nc2ccccc2)nc(-c2ccccn2)n1,> 40000 nM (inactive)
18,O=C(c1cnn(-c2ccccc2)n1)N1CCCC(n2ccnc2)C1 (stereo not drawn),32000 nM
19,COc1ccc(S(=O)(=O)NC(C)C)cc1Nc1ncc(-c2cccc(F)c2)cn1,> 40000 nM (inactive)
20,O=c1[nH]cnc2c([C@@H]3O[C@H](CO)[C@@H](O)[C@H]3O)[nH]nc12,5 nM
21,NCc1csc(Nc2cc(Oc3ccccc3)ncn2)n1,790 nM
22,CC(=O)Nc1ccc(CN2CCC(N3CC(c4ccccc4)(c4ccccc4)OCC3=O)CC2)cc1,400 nM

row,SMILES,IC50
1,CNC(=O)Oc1ccc(C(=O)NCc2ccccc2)cc1OC(=O)NC,400 nM
2,O=c1ccc2ccc(F)c3c2n1C[C@H]3CN1CCC(NCc2cc3ccccc3o2)CC1,2000 nM
3,O=C(Nc1ccc(C(=O)N2CCCC2c2ccc3c(c2)OCCCO3)cc1)c1ccco1 (stereo not drawn),320 nM
4,Oc1cccnc1-c1n[nH]c(Cc2ccccc2)n1,10000 nM
5,O=C(Nc1n[nH]c(-c2ccccn2)n1)C1CC1c1ccccc1 (stereo not drawn),20000 nM
6,NS(=O)(=O)c1ccc(Nc2nccc(-c3cnn4ncccc34)n2)cc1,160 nM
7,Cc1nccn1C1CCCN(C(=O)c2cc3c(F)cccc3s2)C1 (stereo not drawn),> 40000 nM (inactive)
8,CC(C)CC(=O)Nc1cc(C2CC2)nn1-c1nc2c(c(=O)[nH]1)CCCC2,200 nM
9,COc1cccc(CN(C)Cc2nc(N)c3c(C)c(C)sc3n2)c1,4000 nM
10,Fc1ccc(OC2CC(NCc3cccc4cn[nH]c34)C2)cc1C(F)(F)F (stereo not drawn),10000 nM
11,CCOc1ccc(Nc2ccc(S(=O)(=O)N3CCN(C)CC3)cc2[N+](=O)[O-])cc1OCC,32000 nM
12,CC(=Cc1ccccc1)CN1CCC(=O)N(Cc2cccnc2)CC1,> 40000 nM (inactive)
13,CN(C)CCOc1ccc(N2CCN(S(=O)(=O)c3ccc(Cl)cc3)CC2)cc1,25000 nM
14,O=C(Nc1ccc(-c2nc3ccccc3c(=O)[nH]2)cc1)c1cccs1,1000 nM
15,Cn1ccnc1-c1nc(NCc2ccccc2Cl)cc(C2CC2)n1,1600 nM
16,COc1ccc(Nc2nccc(N(C)c3n[nH]c4c(F)cccc34)n2)cc1S(C)(=O)=O,10000 nM
17,CC(C)(C)C(=O)NCCc1csc(-c2ccc(F)cc2)n1,790 nM
18,CN(Cc1ccc(C(N)=O)cc1)C(c1ccc(F)cc1)c1cccnc1 (stereo not drawn),> 40000 nM (inactive)
19,Cc1cccnc1NC(=O)c1cccc(OCc2c(C)noc2C)c1,790 nM
20,O=C(CSc1ccc(-c2ccccn2)nn1)Nc1ccc(Cl)cc1,> 40000 nM (inactive)
21,Clc1ccc(CN2CCN(C3=NCCN3)CC2)cc1Cl,> 40000 nM (inactive)
22,O=C(NCc1nnc2n1CCCCC2)c1ccc(-c2ccc(F)cc2)o1,250 nM

row,SMILES,IC50
1,O=S(=O)(c1cccc(CSc2nnc(-c3ccc4c(c3)OCO4)o2)c1)N1CCOCC1,> 40000 nM (inactive)
2,CCOc1ccc(OCC(=O)N2c3ccccc3CC2C(=O)NC)cc1 (stereo not drawn),790 nM
3,N#CN1CC[C@@H](NC(=O)Nc2ccccc2Oc2ccccc2)C1,7900 nM
4,c1ccc2sc(Nc3nc4ncccc4[nH]3)nc2c1,1600 nM
5,COc1ccnc2[nH]cc(-c3cc(C(=O)N[C@H](CO)c4ccccc4)co3)c12,13 nM
6,CC(C)C[C@H](NC(=O)c1csc(-c2cccs2)n1)C(=O)NC1(C#N)CC1,100 nM
7,O=C(NCCCn1cnc2ccccc21)c1ccc(NC(=O)c2ccco2)cc1,250 nM
8,COc1ccc(-c2cc(C)no2)cc1S(=O)(=O)Nc1ccc(C)c(C)c1,20000 nM
9,O=C(Nc1cccc(Cl)c1)Nc1ccc([N+](=O)[O-])cc1Cl,3200 nM
10,Cc1nc2c(-c3ncn[nH]3)cc(NC(=O)Cc3ccccc3)cn2c1C,10000 nM
11,O=[N+]([O-])c1ccc(C2=CC(c3ccccc3)=NCCN2)cc1,> 13000 nM (inactive)
12,CCCNC(=O)Nc1cccc(-c2nc3ncccc3o2)c1,1000 nM
13,CC(c1ccccn1)N(C)Cc1nc2ccccc2n1C(C)C (stereo not drawn),10000 nM
14,CN(CCOc1ccc(Cl)cc1)Cc1nc(N)nc(N(C)C)n1,16000 nM
15,CC(C)c1sc(Cl)nc1C(=O)NCCc1nc(C(=O)Nc2ccc3c(c2)OCO3)cs1,25000 nM
16,Cc1cc(C)n(-c2nc(NC(C)C)nc(NC(C)(C)C)n2)n1,13000 nM
17,CCc1c(C)nc(-n2nc(C)cc2NC(=O)COc2ccccc2F)[nH]c1=O,200 nM
18,COc1ccc(S(=O)(=O)Nc2ccc(C(=O)Nc3nc(-c4ccccn4)cs3)cc2)cc1,630 nM
19,O=C(Nc1nc(-c2ccc(F)cc2)cs1)c1ccc([N+](=O)[O-])s1,1300 nM
20,COc1ccc(Nc2nc(-c3ccccn3)cs2)c(OC)c1,25000 nM
21,Cc1nc(C(=O)Nc2ccc3c(c2)OCO3)nn1-c1ccc(F)cc1,> 40000 nM (inactive)
22,COc1cc(-c2noc(CC#N)n2)ccc1OC(F)F,630 nM

row,SMILES,IC50
1,N#Cc1nc(C=Cc2ccccc2)oc1NCc1cccnc1,32000 nM
2,COc1ncc(-c2ccc3nccc(-c4ccncc4)c3c2)cc1NS(=O)(=O)C1CC1,400 nM
3,CCS(=O)(=O)c1cccc(C(=O)Nc2nc(-c3ccccn3)cs2)c1,630 nM
4,COc1ccc(NS(=O)(=O)c2cccc(NC(=O)c3cc(F)cc(F)c3)c2)cc1,1000 nM
5,O=c1[nH]c(C=Cc2cccc(OCCOc3ccccc3)c2)nc(O)c1[N+](=O)[O-],10000 nM
6,CC(C)c1cc(C(=O)N2CCCC(c3cc4ncccc4[nH]3)C2)on1 (stereo not drawn),> 40000 nM (inactive)
7,CNc1cncc(C2CCCN2C(=O)Cc2ccc3ccccc3c2)n1 (stereo not drawn),> 40000 nM (inactive)
8,Nc1nonc1-c1nc2cncc(C(=O)N3CC[C@H](N)C3)c2n1CC1CC1,790 nM
9,O=C(NCCc1cccnc1)c1csc(-c2ccccc2)n1,> 40000 nM (inactive)
10,O=c1[nH]c(NCCCNCc2cc(Br)cc(Br)c2)nc2ccsc12,100 nM
11,Cc1cccnc1CN1CCN(CCCOc2ccc(-c3ccc(C(N)=O)cc3)cc2)CC1,> 40000 nM (inactive)
12,c1ccc(CCNCc2cncc3nc(-c4cnccn4)n(C4CCCCC4)c23)cc1,> 40000 nM (inactive)
13,O=C(Nc1ccccc1C(=O)Nc1ccccn1)c1ccco1,500 nM
14,CS(=O)(=O)c1ccccc1C(=O)N(Cc1ccccc1)c1ccccc1,630 nM
15,O=S(=O)(NCC(c1cccnc1)N1CCN(c2ccccc2F)CC1)c1ccc(F)cc1 (stereo not drawn),> 40000 nM (inactive)
16,O=C(NCCc1csc(-c2ccc(F)cc2)n1)c1ccco1,500 nM
17,O=C(NCCNc1noc(-c2ccc([N+](=O)[O-])cc2)n1)c1ccc(Cl)cc1,> 40000 nM (inactive)
18,Cc1nn(-c2ccccc2)nc1CNC(=O)CN(Cc1ccccn1)Cc1ccccn1,10000 nM
19,COc1ccc2ncc(=O)n(CCN3CCOC(CNCc4ccc(C(F)(F)F)cc4F)C3)c2n1 (stereo not drawn),2500 nM
20,COc1ccc(Nc2nc(NC3CCC(O)CC3)ncc2Br)c(C(N)=O)c1 (stereo not drawn),250 nM
